Assay type in all cases: functional
For assay [1], the system named is Escherichia coli. Description: Compound was evaluated for zone of stimulation of growth in Escherichia coli RW193 at concentration of 25 nM.
For assay [2], the system named is Escherichia coli. Description: Compound was evaluated for zone of stimulation of growth in Escherichia coli X580 at concentration of 25 nM.
The test system of assay [3] is Escherichia coli. Description: Compound was evaluated for zone of stimulation of growth in Escherichia coli RWB18 at a concentration of 5 nM.
Assay [4] relates to Escherichia coli. Kind of assay: Compound was evaluated for zone of stimulation of growth in Escherichia coli RWB18 at a concentration of 25 nM.
Assay [5] relates to Escherichia coli. Kind of assay: Compound was evaluated for zone of stimulation of growth in Escherichia coli X580 at concentration of 5 nM.
For assay [6], the system named is Escherichia coli. Description: Compound was evaluated for zone of stimulation of growth in Escherichia coli RW193 at concentration of 5 nM.

`O=C(CCC(=O)N(CCCCNC(=O)c1cccc(O)c1O)CCCNC(=O)c1cccc(O)c1O)NCCCC[C@H](NC(=O)c1cccc(O)c1O)C(=O)O` (stereo in doubt; 7): the Zone of stimulation is 24 mm with Escherichia coli [1], 20 mm in the assay with Escherichia coli [2] and 24 mm with Escherichia coli [3].
As for `O=C(O)CCC(=O)N(CCCCNC(=O)c1cccc(O)c1O)CCCNC(=O)c1cccc(O)c1O`, in the assay on Escherichia coli [4], the Zone of stimulation worked out at 24 mm.
As for `O=C(N[C@H]1COC(=O)[C@@H](NC(=O)c2cccc(O)c2O)COC(=O)[C@@H](NC(=O)c2cccc(O)c2O)COC1=O)c1cccc(O)c1O` (stereo in doubt; form 2) [ENTEROBACTIN], the Zone of stimulation with Escherichia coli [2] came to 40 mm; in the assay on Escherichia coli [5], 30 mm.
On the same counts, the results for `O=C(N[C@H]1COC(=O)[C@@H](NC(=O)c2cccc(O)c2O)COC(=O)[C@@H](NC(=O)c2cccc(O)c2O)COC1=O)c1cccc(O)c1O` (stereo in doubt; form 1) [ENTEROBACTIN] are 38 mm and 24 mm.
As for `O=C(CCC(=O)N(CCCCNC(=O)c1cccc(O)c1O)CCCNC(=O)c1cccc(O)c1O)NCCCC[C@H](NC(=O)c1cccc(O)c1O)C(=O)N[C@@H]1C(=O)N2C(C(=O)O)=C(Cl)CC[C@H]12` (stereo in doubt), the Zone of stimulation turned out to be 20 mm with Escherichia coli [4], 12 mm with Escherichia coli [6], 12 mm in the assay on Escherichia coli [2] and 12 mm in the assay with Escherichia coli [3].
Take `O=C(CCC(=O)N(CCCCNC(=O)c1cccc(O)c1O)CCCNC(=O)c1cccc(O)c1O)NCCCC[C@H](NC(=O)c1cccc(O)c1O)C(=O)O` (stereo in doubt): the Zone of stimulation is 24 mm in the assay on Escherichia coli [4]; 22 mm in the assay with Escherichia coli [6]; 28 mm with Escherichia coli [1]; 22 mm in the assay with Escherichia coli [2]; 16 mm in the assay on Escherichia coli [3].
Consider `O=C(CCC(=O)N(CCCCNC(=O)c1cccc(O)c1O)CCCNC(=O)c1cccc(O)c1O)NCCCC[C@H](NC(=O)c1cccc(O)c1O)C(=O)N[C@@H]1C(=O)N2C(C(=O)O)=C(Cl)CC[C@H]12` (stereo in doubt; 8), for which the Zone of stimulation came to 16 mm in the assay with Escherichia coli [4], 18 mm with Escherichia coli [1], 0 mm in the assay with Escherichia coli [2] and 10 mm with Escherichia coli [3].

The record behind these values is ChEMBL document CHEMBL1125950, “Synthesis, siderophore, and antimicrobial evaluation of a spermidine-based tricatecholate siderophore and carbacephalosporin conjugate” (1991).
